The values that follow come from PMC3688284 (ACS chemical biology, 2011).

Structures are written as SMILES.

The target of series [1] is recombinant human wild type LRRK2 (Homo sapiens, UniProt Q5S007). In words: TR-FRET-based kinase activity assay, wild type LRRK2. It counts as biochemical. The settings on record: read-out: IC50, human wild type LRRK2 activity, ATP 100 μM.
Series [2] deals with G2019S LRRK2 (Homo sapiens, UniProt Q5S007, G2019S). Briefly: TR-FRET-based kinase activity assay, G2019S LRRK2. It counts as biochemical. As to conditions: read-out: IC50, G2019S LRRK2 activity, ATP 100 μM.
Chain of G2019S LRRK2 (Q5S007 whole entry G2019S): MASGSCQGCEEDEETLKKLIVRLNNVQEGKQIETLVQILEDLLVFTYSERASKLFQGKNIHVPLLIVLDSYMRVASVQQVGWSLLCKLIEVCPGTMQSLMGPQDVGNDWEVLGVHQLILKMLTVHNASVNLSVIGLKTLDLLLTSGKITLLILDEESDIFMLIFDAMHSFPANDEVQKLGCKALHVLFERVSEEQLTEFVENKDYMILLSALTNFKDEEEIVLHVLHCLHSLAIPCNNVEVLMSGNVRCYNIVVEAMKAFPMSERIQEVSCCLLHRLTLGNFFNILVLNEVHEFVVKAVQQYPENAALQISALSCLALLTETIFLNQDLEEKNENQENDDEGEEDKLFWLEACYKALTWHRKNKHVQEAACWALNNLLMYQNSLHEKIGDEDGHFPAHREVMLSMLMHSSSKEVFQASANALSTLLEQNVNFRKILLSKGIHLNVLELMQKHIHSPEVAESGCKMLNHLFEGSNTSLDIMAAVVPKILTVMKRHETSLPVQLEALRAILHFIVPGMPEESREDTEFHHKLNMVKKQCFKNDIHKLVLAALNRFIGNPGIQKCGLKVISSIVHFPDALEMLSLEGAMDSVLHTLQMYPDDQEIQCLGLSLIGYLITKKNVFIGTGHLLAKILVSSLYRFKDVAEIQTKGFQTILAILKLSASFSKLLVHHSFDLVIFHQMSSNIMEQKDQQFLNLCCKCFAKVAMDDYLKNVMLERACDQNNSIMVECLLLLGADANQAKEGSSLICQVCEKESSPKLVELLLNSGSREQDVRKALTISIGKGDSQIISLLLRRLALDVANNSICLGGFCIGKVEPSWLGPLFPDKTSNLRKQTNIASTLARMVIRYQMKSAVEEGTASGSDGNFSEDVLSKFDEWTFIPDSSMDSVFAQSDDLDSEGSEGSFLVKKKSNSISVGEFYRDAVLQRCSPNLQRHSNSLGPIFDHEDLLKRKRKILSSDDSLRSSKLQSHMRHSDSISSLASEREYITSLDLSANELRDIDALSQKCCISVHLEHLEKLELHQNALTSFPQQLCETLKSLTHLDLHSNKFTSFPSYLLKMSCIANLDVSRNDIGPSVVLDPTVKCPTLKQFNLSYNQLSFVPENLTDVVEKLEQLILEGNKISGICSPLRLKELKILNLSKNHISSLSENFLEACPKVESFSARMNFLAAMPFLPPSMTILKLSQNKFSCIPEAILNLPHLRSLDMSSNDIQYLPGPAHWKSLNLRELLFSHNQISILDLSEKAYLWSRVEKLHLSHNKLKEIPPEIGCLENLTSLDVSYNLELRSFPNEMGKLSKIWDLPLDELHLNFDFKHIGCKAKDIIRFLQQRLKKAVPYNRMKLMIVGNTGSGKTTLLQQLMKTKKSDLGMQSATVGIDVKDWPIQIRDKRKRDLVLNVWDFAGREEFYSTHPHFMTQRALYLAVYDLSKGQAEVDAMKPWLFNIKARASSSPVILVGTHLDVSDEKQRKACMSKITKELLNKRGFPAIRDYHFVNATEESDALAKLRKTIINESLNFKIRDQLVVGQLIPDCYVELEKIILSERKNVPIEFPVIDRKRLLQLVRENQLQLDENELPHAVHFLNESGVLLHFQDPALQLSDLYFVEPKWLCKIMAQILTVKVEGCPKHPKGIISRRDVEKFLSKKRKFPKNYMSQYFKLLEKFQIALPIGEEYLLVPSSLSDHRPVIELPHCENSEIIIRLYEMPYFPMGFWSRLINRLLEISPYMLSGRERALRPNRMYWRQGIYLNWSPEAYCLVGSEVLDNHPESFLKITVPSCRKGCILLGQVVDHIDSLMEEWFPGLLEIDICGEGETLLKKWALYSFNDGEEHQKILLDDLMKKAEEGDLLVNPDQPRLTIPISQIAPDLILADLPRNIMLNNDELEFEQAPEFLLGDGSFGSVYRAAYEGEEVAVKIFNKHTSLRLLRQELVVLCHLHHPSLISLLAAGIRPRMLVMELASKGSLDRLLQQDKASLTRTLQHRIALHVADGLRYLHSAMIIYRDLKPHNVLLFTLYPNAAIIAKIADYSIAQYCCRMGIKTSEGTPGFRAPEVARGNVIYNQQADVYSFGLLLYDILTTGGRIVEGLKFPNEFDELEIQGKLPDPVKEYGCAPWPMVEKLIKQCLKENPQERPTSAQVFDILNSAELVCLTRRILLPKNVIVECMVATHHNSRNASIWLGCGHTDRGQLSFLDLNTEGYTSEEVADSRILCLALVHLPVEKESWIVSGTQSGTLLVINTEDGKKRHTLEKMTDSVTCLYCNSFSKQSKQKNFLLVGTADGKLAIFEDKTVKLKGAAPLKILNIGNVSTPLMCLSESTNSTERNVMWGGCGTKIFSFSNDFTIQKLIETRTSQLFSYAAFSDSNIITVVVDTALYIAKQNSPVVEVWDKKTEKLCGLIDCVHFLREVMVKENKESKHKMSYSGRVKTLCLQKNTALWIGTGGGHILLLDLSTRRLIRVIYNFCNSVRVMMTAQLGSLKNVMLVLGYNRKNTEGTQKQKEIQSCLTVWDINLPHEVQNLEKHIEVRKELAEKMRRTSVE
Series [3] has as its system rat primary cortical neurons transfected with LRRK2 R1441C. It counts as cell-based. The settings on record: at higher concentrations.
Series [4] concerns human cortical neurons. Briefly: AlamarBlue cytotoxicity assay in primary human cortical neurons. As to conditions: for Concentration at which overt cytotoxicity was seen: human cortical neurons. It is filed as cell-based.
A short description of series [5]: Pharmacokinetics studies. The settings on record: in vivo.
Series [6] deals with rat primary cortical neurons transfected with LRRK2 G2019S. It is filed as cell-based.
For series [7], the system named is LRRK2 G2019S-transfected human cortical neurons. Briefly: Neurite morphology assay in primary human cortical neurons. The settings on record: for EC50: read-out: EC50, attenuation of G2019S LRRK2-induced human neuronal injury.
Series [8] concerns the target LRRK2 (human K562 extracts) (Homo sapiens, UniProt Q5S007). Briefly: la-S7 binding assay in human K562 extracts. As to conditions: concentrations as high as 100 μM tested; 5 mg/mL protein.
The target of series [9] is mouse LRRK2 (mouse kidney lysate) (Mus musculus, UniProt Q5S006). In words: Competition-binding assay with la-S7 matrix. As to conditions: concentrations as high as 100 μM tested; 5 mg/mL protein.
Chain of mouse LRRK2 (mouse kidney lysate) (Q5S006 1879-2146 limits assumed): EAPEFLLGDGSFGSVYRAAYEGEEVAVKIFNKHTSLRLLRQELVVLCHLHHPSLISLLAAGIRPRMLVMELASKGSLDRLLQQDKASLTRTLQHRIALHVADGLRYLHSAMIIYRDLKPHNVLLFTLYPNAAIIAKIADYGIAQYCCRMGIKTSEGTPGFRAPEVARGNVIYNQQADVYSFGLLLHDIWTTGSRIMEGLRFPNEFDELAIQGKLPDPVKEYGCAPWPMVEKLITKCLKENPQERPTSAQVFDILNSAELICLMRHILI

Chain of recombinant human wild type LRRK2 (Q5S007 whole entry): as the sequence (Q5S007 whole entry G2019S) above, with S2019G counted along it
Chain of LRRK2 (human K562 extracts) (Q5S007 whole entry): as the sequence (Q5S007 whole entry G2019S) above, with S2019G counted along it

On to `COc1cc(N2CCOCC2)ccc1Nc1ncc(F)c(Nc2ccccc2NS(C)(=O)=O)n1` [CZC-25146], for which the IC50 in [1] came to 4.76 nM. In [2], the IC50 was found to be 6.87 nM. In series [3], the “Block of R1441C-induced toxicity” value is listed as “completely blocked”. For the same molecule, the “Concentration at which overt cytotoxicity was seen” value in series [4] worked out at 5000 nM. For the same molecule, the “Concentrations at which no cytotoxicity was caused” value in series [4] (seven-day treatment in culture) is on record as “below 5 μM”. Further, in series [5], the Brain penetration is ~ 4%, the Clearance came to 38.3 mL/min/kg and the Volume of distribution is on record as 5.4 L/kg. Also, the “Block of G2019S LRRK2-induced toxicity” value in [6] (at higher concentrations) was “completely blocked”. In addition, in series [6] (read-out: EC50, attenuation of G2019S LRRK2-induced neuronal injury and death, primary rodent cortical neurons), the EC50 is about 100 nM. In [7], the “Concentration fully reversing G2019S LRRK2-induced injury to wild-type levels” value stood at 8 nM and the EC50 was about 4 nM.

`O=C1Nc2ccc(I)cc2/C1=C/c1cc(Br)c(O)c(Br)c1` [GW-5074]: the “IC50 in la-S7 binding assay, human K562 extracts” value in series [8] is “no valid IC50s”. The “IC50 in la-S7 binding assay, mouse kidney extracts” value in series [9] is “no valid IC50s”.

As to `COc1cc(N2CCOCC2)ccc1Nc1ncc(Cl)c(Nc2ccccc2NS(C)(=O)=O)n1` [CZC-54252], the IC50 in series [1] is 1.28 nM. For the same molecule, the IC50 in series [2] was found to be 1.85 nM. Also, the “Concentration at which overt cytotoxicity was seen” value in series [4] is at least 1000 nM. For the same molecule, in series [5], the Brain penetration is on record as ~ 4%. Further, in [7], the “Concentration fully reversing G2019S LRRK2-induced injury to wild-type levels” value worked out at 1.6 nM and the EC50 is about 1 nM.
